Key:
CFTR G551D mutant = target: T1, CFTR G551D mutant (Homo sapiens, UniProt P13569, G551D); test: YFP-halide influx assay for the CFTR-G551D mutation (HEK293 cells); assay type: cell-based; conditions: forskolin 10.67 μM
T1 construct: expressed in transfected cells; host or cells: HEK293 cells, reverse transfection with plasmids
How it was run: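 Channel opening read as I⁻-driven quenching of a YFP H148Q/I152L/F47L reporter over 7 s post-injection, expressed as 1−F/F0 and fitted against concentration for EC50. Cells were HEK293 co-transfected at seeding with G551D CFTR plus reporter, then grown 24 h at 37 °C, 5% CO2.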

CFTR ΔF508 mutant = target: T2, CFTR ΔF508 mutant (Homo sapiens, UniProt P13569, DEL508-508); test: YFP-halide influx assay for the CFTR-ΔF508 mutation (CFBE41o- cells); assay type: cell-based; conditions: forskolin 10.67 μM; for EC50: from (1−F/F0) vs concentration plot
T2 construct: expressed in transfected cells; host or cells: CFBE41o- cells, adenoviral transduction
How it was run: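 EC50 derived from plotting 1−F/F0 (fluorescence 36 s after iodide injection over pre-injection value) against compound concentration. Cells: CFBE41o- transduced with ΔF508-CFTR and YFP quench reporter, corrected 24 h at 27° C or by a CFTR modulator at 37° C.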

T1 sequence (P13569 whole entry G551D): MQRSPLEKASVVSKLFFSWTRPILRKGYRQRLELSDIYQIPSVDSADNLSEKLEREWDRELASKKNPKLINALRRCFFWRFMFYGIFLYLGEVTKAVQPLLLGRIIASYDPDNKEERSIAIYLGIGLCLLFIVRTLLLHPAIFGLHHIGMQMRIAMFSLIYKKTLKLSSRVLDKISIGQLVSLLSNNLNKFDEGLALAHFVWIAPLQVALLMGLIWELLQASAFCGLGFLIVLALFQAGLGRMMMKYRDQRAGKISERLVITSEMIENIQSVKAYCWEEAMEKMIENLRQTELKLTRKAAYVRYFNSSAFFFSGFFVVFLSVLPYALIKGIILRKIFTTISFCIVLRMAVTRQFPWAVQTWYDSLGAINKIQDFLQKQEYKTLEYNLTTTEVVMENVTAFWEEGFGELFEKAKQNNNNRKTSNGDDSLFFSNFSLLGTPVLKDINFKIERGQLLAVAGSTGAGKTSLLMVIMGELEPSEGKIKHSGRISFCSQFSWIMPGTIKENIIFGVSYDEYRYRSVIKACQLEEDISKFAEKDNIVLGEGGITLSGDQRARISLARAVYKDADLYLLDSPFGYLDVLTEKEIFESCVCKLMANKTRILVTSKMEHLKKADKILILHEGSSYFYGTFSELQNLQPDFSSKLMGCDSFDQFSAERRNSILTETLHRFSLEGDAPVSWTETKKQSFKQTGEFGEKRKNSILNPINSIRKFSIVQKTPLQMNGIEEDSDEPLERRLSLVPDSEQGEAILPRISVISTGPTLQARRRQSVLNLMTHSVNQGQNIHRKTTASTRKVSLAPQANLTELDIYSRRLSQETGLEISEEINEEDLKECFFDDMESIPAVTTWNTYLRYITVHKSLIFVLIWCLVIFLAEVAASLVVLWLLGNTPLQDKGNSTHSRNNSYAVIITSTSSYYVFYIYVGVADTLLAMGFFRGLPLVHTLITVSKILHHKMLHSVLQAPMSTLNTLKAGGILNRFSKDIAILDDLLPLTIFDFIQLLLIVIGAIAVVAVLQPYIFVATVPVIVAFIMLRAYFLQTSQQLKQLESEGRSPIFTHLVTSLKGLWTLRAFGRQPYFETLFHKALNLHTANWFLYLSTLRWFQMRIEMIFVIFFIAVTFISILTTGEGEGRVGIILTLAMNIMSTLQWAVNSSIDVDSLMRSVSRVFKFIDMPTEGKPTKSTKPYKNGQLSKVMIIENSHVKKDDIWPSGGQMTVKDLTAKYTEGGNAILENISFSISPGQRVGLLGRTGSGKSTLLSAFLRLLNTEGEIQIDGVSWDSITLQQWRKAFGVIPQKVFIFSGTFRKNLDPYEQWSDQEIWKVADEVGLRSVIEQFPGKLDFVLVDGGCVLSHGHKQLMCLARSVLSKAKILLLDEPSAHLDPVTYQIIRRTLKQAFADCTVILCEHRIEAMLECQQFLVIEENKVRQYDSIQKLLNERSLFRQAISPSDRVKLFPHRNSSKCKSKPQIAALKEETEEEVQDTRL
T2 sequence (P13569 with tags, fused parts or gaps DEL508-508): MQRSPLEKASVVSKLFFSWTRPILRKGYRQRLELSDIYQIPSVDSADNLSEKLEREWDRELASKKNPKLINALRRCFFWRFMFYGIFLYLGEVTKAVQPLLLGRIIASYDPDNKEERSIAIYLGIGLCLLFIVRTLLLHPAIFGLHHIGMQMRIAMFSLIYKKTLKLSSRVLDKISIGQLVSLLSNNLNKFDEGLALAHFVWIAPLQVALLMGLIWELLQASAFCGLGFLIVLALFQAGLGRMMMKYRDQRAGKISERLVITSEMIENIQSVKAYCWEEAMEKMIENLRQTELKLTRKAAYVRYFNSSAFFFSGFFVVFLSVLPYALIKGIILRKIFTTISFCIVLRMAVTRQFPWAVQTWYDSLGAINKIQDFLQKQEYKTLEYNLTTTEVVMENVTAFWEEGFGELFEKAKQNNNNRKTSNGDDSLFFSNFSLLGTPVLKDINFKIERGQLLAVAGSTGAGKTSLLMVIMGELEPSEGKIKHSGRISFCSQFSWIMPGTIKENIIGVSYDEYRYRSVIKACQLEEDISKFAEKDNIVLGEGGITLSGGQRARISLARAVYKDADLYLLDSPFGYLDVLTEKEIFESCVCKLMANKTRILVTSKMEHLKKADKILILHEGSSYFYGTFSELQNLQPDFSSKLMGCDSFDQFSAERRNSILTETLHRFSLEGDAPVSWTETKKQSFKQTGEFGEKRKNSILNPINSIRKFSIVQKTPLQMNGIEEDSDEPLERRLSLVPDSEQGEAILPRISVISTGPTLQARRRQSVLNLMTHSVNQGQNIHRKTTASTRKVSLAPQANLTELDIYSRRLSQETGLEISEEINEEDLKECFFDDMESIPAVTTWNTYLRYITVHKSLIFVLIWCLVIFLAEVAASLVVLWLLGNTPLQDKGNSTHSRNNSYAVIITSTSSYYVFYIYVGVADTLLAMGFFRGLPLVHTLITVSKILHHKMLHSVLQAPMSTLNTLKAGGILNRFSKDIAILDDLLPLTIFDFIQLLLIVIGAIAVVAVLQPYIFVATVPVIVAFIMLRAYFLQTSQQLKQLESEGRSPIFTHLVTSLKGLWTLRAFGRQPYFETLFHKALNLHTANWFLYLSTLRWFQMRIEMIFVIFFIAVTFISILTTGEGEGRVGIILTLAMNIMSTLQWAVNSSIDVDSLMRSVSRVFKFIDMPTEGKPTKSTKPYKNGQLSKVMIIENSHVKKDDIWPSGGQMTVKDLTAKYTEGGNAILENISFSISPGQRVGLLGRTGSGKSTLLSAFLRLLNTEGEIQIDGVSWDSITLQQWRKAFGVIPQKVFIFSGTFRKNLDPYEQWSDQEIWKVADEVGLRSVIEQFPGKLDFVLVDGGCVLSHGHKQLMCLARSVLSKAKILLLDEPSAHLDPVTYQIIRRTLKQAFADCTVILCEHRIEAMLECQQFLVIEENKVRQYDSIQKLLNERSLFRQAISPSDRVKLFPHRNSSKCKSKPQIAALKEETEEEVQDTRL

SMILES: Nc1cc(S(=O)(=O)c2ccc(OC(F)(F)F)cc2)cnc1C(=O)NCC(O)C1CCOCC1 (stereo not drawn) [Compound 35, 3-amino-N-[2-hydroxy-2-(tetrahydro-2H-pyran-4-yl)ethyl]-5-{[4-(trifluoromethoxy)phenyl]sulfonyl}pyridine-2-carboxamide]
- % Activation (CFTR G551D mutant): 78.7%
- EC50 (CFTR G551D mutant): 2390 nM
- % Activation (CFTR ΔF508 mutant): 110.4%
- EC50 (CFTR ΔF508 mutant): 84.7 nM

SMILES: Nc1cc(S(=O)(=O)c2ccc(OC(F)(F)F)cc2)cnc1C(=O)N1CCC(F)(F)C1 [Compound 203, (3-amino-5-{[4-(trifluoromethoxy)phenyl]sulfonyl}pyridin-2-yl)(3,3-difluoropyrrolidin-1-yl)methanone]
- % Activation (CFTR G551D mutant): 57.3%
- EC50 (CFTR G551D mutant): 1270 nM
- % Activation (CFTR ΔF508 mutant): 92.6%
- EC50 (CFTR ΔF508 mutant): 47.3 nM

SMILES: C[C@H]1CCCN1S(=O)(=O)c1cnc(C(=O)N2CC(C(N)=O)C2)c(N)c1 [Compound 271, 1-[(3-amino-5-{[(2S)-2-methylpyrrolidin-1-yl]sulfonyl}pyridin-2-yl)carbonyl]azetidine-3-carboxamide]
- % Activation (CFTR G551D mutant): 2.5%
- EC50 (CFTR G551D mutant): > 10000 nM
- % Activation (CFTR ΔF508 mutant): 20.4%
- EC50 (CFTR ΔF508 mutant): > 2000 nM

SMILES: C[C@H](O)CNC(=O)c1nc(Oc2cccc(F)c2)c(S(=O)(=O)c2ccc(OC(F)(F)F)cc2)cc1N [Compound 284, 3-amino-6-(3-fluorophenoxy)-N-[(2S)-2-hydroxypropyl]-5-{[4-(trifluoromethoxy)phenyl]sulfonyl}pyridine-2-carboxamide]
- % Activation (CFTR G551D mutant): 67.0%
- EC50 (CFTR G551D mutant): 1620 nM
- % Activation (CFTR ΔF508 mutant): 95.1%
- EC50 (CFTR ΔF508 mutant): 6.3 nM

SMILES: Nc1cc(S(=O)(=O)NC[C@H]2CCOC2)cnc1C(=O)NCC(O)C(F)(F)F (stereo partly drawn) [Compound 200, 3-amino-5-{[(3R)-tetrahydrofuran-3-ylmethyl]sulfamoyl}-N-(3,3,3-trifluoro-2-hydroxypropyl)pyridine-2-carboxamide]
- % Activation (CFTR G551D mutant): 59.5%
- EC50 (CFTR G551D mutant): 2340 nM
- % Activation (CFTR ΔF508 mutant): 116.7%
- EC50 (CFTR ΔF508 mutant): 42.9 nM

SMILES: Nc1cc(S(=O)(=O)c2ccc(OC(F)(F)F)cc2)cnc1C(=O)NCCc1ccco1 [Compound 141, 3-amino-N-[2-(furan-2-yl)ethyl]-5-{[4-(trifluoromethoxy)phenyl]sulfonyl}pyridine-2-carboxamide]
- % Activation (CFTR G551D mutant): 60.4%
- EC50 (CFTR G551D mutant): 795 nM
- % Activation (CFTR ΔF508 mutant): 100.6%
- EC50 (CFTR ΔF508 mutant): 109 nM

SMILES: Nc1cc(S(=O)(=O)c2ccc(OC(F)(F)F)cc2)cnc1C(=O)NCC(=O)NC1CC1 [Compound 58, 3-amino-N-[2-(cyclopropylamino)-2-oxoethyl]-5-{[4-(trifluoromethoxy)phenyl]sulfonyl}pyridine-2-carboxamide]
- % Activation (CFTR G551D mutant): 42.3%
- EC50 (CFTR G551D mutant): 1070 nM
- % Activation (CFTR ΔF508 mutant): 92.2%
- EC50 (CFTR ΔF508 mutant): 20.6 nM

SMILES: CO[C@H]1C[C@H](NC(=O)c2ncc(S(=O)(=O)c3ccc(OC(F)(F)F)cc3)cc2N)C1 [Compound 120, 3-amino-N-(trans-3-methoxycyclobutyl)-5-{[4-(trifluoromethoxy)phenyl]sulfonyl}pyridine-2-carboxamide]
- % Activation (CFTR G551D mutant): 54.0%
- EC50 (CFTR G551D mutant): 1110 nM
- % Activation (CFTR ΔF508 mutant): 96.5%
- EC50 (CFTR ΔF508 mutant): 76.8 nM

SMILES: Nc1cc(S(=O)(=O)c2ccc(OC(F)(F)F)cc2)cnc1C(=O)NC1CC(F)(F)C1 [Compound 122, 3-amino-N-(3,3-difluorocyclobutyl)-5-{[4-(trifluoromethoxy)phenyl]sulfonyl}pyridine-2-carboxamide]
- % Activation (CFTR G551D mutant): 50.9%
- EC50 (CFTR G551D mutant): 425 nM
- % Activation (CFTR ΔF508 mutant): 83.2%
- EC50 (CFTR ΔF508 mutant): 35.3 nM

SMILES: Nc1cc(S(=O)(=O)c2ccccc2)cnc1C(=O)NCC(O)C(F)(F)F (stereo not drawn) [Compound 244, 3-amino-5-(phenylsulfonyl)-N-(3,3,3-trifluoro-2-hydroxypropyl)pyridine-2-carboxamide]
- % Activation (CFTR G551D mutant): 65.9%
- EC50 (CFTR G551D mutant): 564 nM
- % Activation (CFTR ΔF508 mutant): 102.5%
- EC50 (CFTR ΔF508 mutant): 8.5 nM

SMILES: Nc1cc(S(=O)(=O)c2ccccc2)cnc1C(=O)N1CC(O)(C(F)(F)F)C1 [Compound 255, [3-amino-5-(phenyl sulfonyl)pyridin-2-yl][3-hydroxy-3-(trifluoromethyl)azetidin-1-yl]methanone]
- % Activation (CFTR G551D mutant): 41.8%
- EC50 (CFTR G551D mutant): 5770 nM
- % Activation (CFTR ΔF508 mutant): 104.2%
- EC50 (CFTR ΔF508 mutant): 1.3 nM

SMILES: C[C@H](O)CNC(=O)c1ncc(S(=O)(=O)N(C)Cc2ccc(F)cc2)cc1N [Compound 269, 3-amino-5-[(4-fluorobenzyl)(methyl)sulfamoyl]-N-[(2S)-2-hydroxypropyl]pyridine-2-carboxamide]
- % Activation (CFTR G551D mutant): 44.8%
- EC50 (CFTR G551D mutant): 1310 nM
- % Activation (CFTR ΔF508 mutant): 107.0%
- EC50 (CFTR ΔF508 mutant): 7.8 nM

SMILES: Nc1cc(S(=O)(=O)c2ccc(OC(F)(F)F)cc2)cnc1C(=O)N1CC[C@H](F)C1 [Compound 206, (3-amino-5-{[4-(trifluoromethoxy)phenyl]sulfonyl}pyridin-2-yl)[(3S)-3-fluoropyrrolidin-1-yl]methanone]
- % Activation (CFTR G551D mutant): 90.3%
- EC50 (CFTR G551D mutant): 3150 nM
- % Activation (CFTR ΔF508 mutant): 103.0%
- EC50 (CFTR ΔF508 mutant): 74.8 nM

SMILES: Nc1cc(S(=O)(=O)N2CCC(F)CC2)cnc1C(=O)NCC(O)C(F)(F)F (stereo not drawn) [Compound 195, 3-amino-5-[(4-fluoropiperidin-1-yl)sulfonyl]-N-(3,3,3-trifluoro-2-hydroxypropyl)pyridine-2-carboxamide]
- % Activation (CFTR G551D mutant): 61.8%
- EC50 (CFTR G551D mutant): 1250 nM
- % Activation (CFTR ΔF508 mutant): 98.7%
- EC50 (CFTR ΔF508 mutant): 26.2 nM

SMILES: C[C@H](O)CNC(=O)c1ncc(S(=O)(=O)N2CCCC2CO)cc1N (mixture of isomers) [Compound 268, 3-amino-5-{[2-(hydroxymethyl)pyrrolidin-1-yl]sulfonyl}-N-[(2S)-2-hydroxypropyl]pyridine-2-carboxamide]
- % Activation (CFTR G551D mutant): 0.3%
- % Activation (CFTR ΔF508 mutant): 37.1%
- EC50 (CFTR ΔF508 mutant): > 667 nM

SMILES: COCC(O)CCNC(=O)c1ncc(S(=O)(=O)c2ccc(OC(F)(F)F)cc2)cc1N (stereo not drawn) [Compound 54, 3-amino-N-(3-hydroxy-4-methoxybutyl)-5-{[4-(trifluoromethoxy)phenyl]sulfonyl}pyridine-2-carboxamide]
- % Activation (CFTR G551D mutant): 62.6%
- EC50 (CFTR G551D mutant): 1660 nM
- % Activation (CFTR ΔF508 mutant): 89.2%
- EC50 (CFTR ΔF508 mutant): 72.9 nM

SMILES: COC1CCN(S(=O)(=O)c2cnc(C(=O)NCC(O)C(F)(F)F)c(N)c2)CC1 (stereo not drawn) [Compound 196, 3-amino-5-[(4-methoxypiperidin-1-yl)sulfonyl]-N-(3,3,3-trifluoro-2-hydroxypropyl)pyridine-2-carboxamide]
- % Activation (CFTR G551D mutant): 65.4%
- EC50 (CFTR G551D mutant): 1820 nM
- % Activation (CFTR ΔF508 mutant): 105.4%
- EC50 (CFTR ΔF508 mutant): 25.7 nM

SMILES: NC(=O)c1ncc(S(=O)(=O)c2ccc(OC(F)(F)F)cc2)cc1N [Compound 297, 3-amino-5-{[4-(trifluoromethoxy)phenyl]sulfonyl}pyridine-2-carboxamide]
- % Activation (CFTR G551D mutant): 85%
- EC50 (CFTR G551D mutant): 518 nM
- % Activation (CFTR ΔF508 mutant): 109%
- EC50 (CFTR ΔF508 mutant): 53 nM

SMILES: CC(C)(O)CCNC(=O)c1ncc(S(=O)(=O)c2ccc(OC(F)(F)F)cc2)cc1N [Compound 51, 3-amino-N-(3-hydroxy-3-methylbutyl)-5-{[4-(trifluoromethoxy)phenyl]sulfonyl}pyridine-2-carboxamide]
- % Activation (CFTR G551D mutant): 51.2%
- EC50 (CFTR G551D mutant): 1130 nM
- % Activation (CFTR ΔF508 mutant): 96.8%
- EC50 (CFTR ΔF508 mutant): 30.2 nM

SMILES: CC(C)NC(=O)CNC(=O)c1ncc(S(=O)(=O)c2ccc(OC(F)(F)F)cc2F)cc1N [Compound 135, 3-amino-5-{[2-fluoro-4-(trifluoromethoxy)phenyl]sulfonyl}-N-[2-oxo-2-(propan-2-ylamino)ethyl]pyridine-2-carboxamide]
- % Activation (CFTR G551D mutant): 43.5%
- EC50 (CFTR G551D mutant): 5770 nM
- % Activation (CFTR ΔF508 mutant): 108.7%
- EC50 (CFTR ΔF508 mutant): 8.5 nM

SMILES: CCOCC(O)CNC(=O)c1ncc(S(=O)(=O)c2ccc(OC(F)(F)F)cc2)cc1N (stereo not drawn) [Compound 88, 3-amino-N-(3-ethoxy-2-hydroxypropyl)-5-{[4-(trifluoromethoxy)phenyl]sulfonyl}pyridine-2-carboxamide]
- % Activation (CFTR G551D mutant): 82.0%
- EC50 (CFTR G551D mutant): 762 nM
- % Activation (CFTR ΔF508 mutant): 96.0%
- EC50 (CFTR ΔF508 mutant): 12.4 nM

SMILES: Nc1cc(S(=O)(=O)c2ccc(OC(F)(F)F)cc2)cnc1C(=O)NCC(O)CF (stereo not drawn) [Compound 273, 3-amino-N-(3-fluoro-2-hydroxypropyl)-5-{[4-(trifluoromethoxy)phenyl]sulfonyl}pyridine-2-carboxamide]
- % Activation (CFTR G551D mutant): 39.5%
- EC50 (CFTR G551D mutant): 1010 nM
- % Activation (CFTR ΔF508 mutant): 112.0%
- EC50 (CFTR ΔF508 mutant): 10.3 nM
